Results reported in patent US20100209407A1, “MC-1R, MC-2R, AND/OR MU OPIOID RECEPTORS MODULATION” (BASF BEAUTY CARE SOLUTIONS FRANCE S.A.S., priority 2007, published 2010).

Assays:
Type in all cases: cell-based, human
MC-1R [1] = assay: MC-1R mRNA expression by quantitative RT-PCR in melanocytes put in contact with actives; conditions: mRNA relative to actin, multiple of untreated control, 24 hours, same conditions as Example 3
POMC [2] = assay: POMC mRNA expression by quantitative RT-PCR in melanocytes put in contact with actives; conditions: mRNA relative to actin, multiple of untreated control, 24 hours, same conditions as Example 3
Procedure: The active components are tested for keratinocytes after dissolution in the culturing environment: usually between 0.1% and 2% (v/v) for plants and biotechnological hydrolysates and in particular from 0.5% to 1% and usually between 0.001% and 0.01% for characterized molecules. The present results are obtained with 1% in the culturing environment for plant extracts and biotechnological hydrolysates, and with 0.01% for characterized molecules.
After the contact time of the actives with the cells, for example 24 hours, the environments are eliminated and the cells conserved, for example by freeze-drying at −80° C. after a rinsing with 7.4 pH phosphate solution. The total RNA is extracted, for example, using a 96-well extraction kit on silica columns and divided onto a 96-well spectrophotometer at 260 nm (purity indicator: dosage of proteins at 280 nm). The RNA is diluted, for example at 5 ng/μl. […]
(§1) The parameters of amplification have usually been the following: The technique of RT-PCR in real time is conducted with the “Quanti Ted SYBR Green RT-PCR” kit (Qiagen, France) on wells containing mRNA, in an OPTICON thermocycler, which carries out cycles of amplification. […] At the end of each cycle, fluorescence, which is proportional to the number of fragments amplified, is read. […]

μ opioid R [3] = assay: μ opioid R mRNA expression by quantitative RT-PCR in melanocytes put in contact with actives; conditions: mRNA relative to actin, multiple of untreated control, 24 hours, same conditions as Example 3
MC-1R [4] = assay: MC-1R mRNA expression by quantitative RT-PCR in keratinocytes put in contact with actives; conditions: mRNA relative to actin, multiple of untreated control, 24 hours, 1% plant extracts and biotechnological hydrolysates, 0.01% characterized molecules
Source text: (§2) In particular, the extracts are obtained by macerating plants (preferably roots, rhizomes, stems, bark, flowers, fruits, seeds, germs, or leaves) at 1-10% (p/p), usually 1-5% in a solvent or a mixture of solvents, usually a mixture of water and alcohol, glycol, or polyol (such as ethanol, glycerol, butylene glycol and other glycols, xylitol, etc.) 100/0 to 0/100, and preferably in water. The extracts obtained are then filtered or distilled in order to recover the soluble portion, which is then filtered, preferably at 0.45 μm. Biotechnological hydrolysates are obtained via the fermentation of plant extracts in the presence of microorganisms usually from the family of lactic bacteria, in particular bactobacillus plantarum, or paracasei, and bifidobacterium, in particular longum or Saccharomyces. These hydrolysates are then filtered, preferably to 0.45 μm, in order to obtain the active components. […]
as §1

μ opioid receptor = assay: Detection of μ opioid receptor protein in keratinocytes after action of active components (electrophoresis, immunodetection, image analysis); conditions: semi-quantification via image analysis, multiple of control
Procedure: (§3) The cells were cultivated at 37° C. in an atmosphere of 5% CO2 in the K-SFM environment K-SFM (Invitrogen) containing BPF (25 mg), EGF (2.5 μg), and normocin.
(§4) The cells were washed once with PBS solution, and the proteins were extracted at 30 min at 4° C. in lysis solution (Tris 50 mM, NaCl 250 mM, pH 7.5, 1% triton), in the presence of protease inhibitors. The lysates were centrifuged for 15 minutes at 13,000 g. The floaters are diluted with Laemmli solution in the presence of beta mercaptoethanol before electrophoresis.
(§5) For immunodetection, the proteins are separated via electrophoresis in 4-12% SDS-polyacrylamide gel. The proteins were transferred onto a nitrocellulose membrane (Biorad). The membranes are then saturated for one hour at ambient temperature in TBS solution with 3% BSA. The proteins are finally immunodetected after incubation of the primary antibody at 4° C. all night, followed by the secondary antibody coupled with Alexa 488 (invitrogen), 1 hour at ambient temperature.
(§6) The antibodies were used in the following dilution: 5 μg/mL anti-MC-1R, 5 μg/mL anti-MC-2R, and 1/1000 anti-μ opioid R.
(§7) Semi-quantification was carried out via image analysis. The actives are the following and are the subject of table IV.

MC-2R [5] = assay: Detection of MC-2R protein in keratinocytes after action of active components (electrophoresis, immunodetection, image analysis); conditions: semi-quantification via image analysis, multiple of control
Procedure: as §3, §4, §5, §6, §7

μ opioid R [6] = assay: μ opioid R mRNA expression by quantitative RT-PCR in keratinocytes put in contact with actives; conditions: mRNA relative to actin, multiple of untreated control, 24 hours, 1% plant extracts and biotechnological hydrolysates, 0.01% characterized molecules
Source text: as §2, §1

MC-2R [7] = assay: MC-2R mRNA expression by quantitative RT-PCR in keratinocytes put in contact with actives; conditions: mRNA relative to actin, multiple of untreated control, 24 hours, 1% plant extracts and biotechnological hydrolysates, 0.01% characterized molecules
Source text: as §2, §1

POMC [8] = assay: POMC mRNA expression by quantitative RT-PCR in keratinocytes put in contact with actives; conditions: mRNA relative to actin, multiple of untreated control, 24 hours, 1% plant extracts and biotechnological hydrolysates, 0.01% characterized molecules
Source text: as §2, §1

Row | SMILES | MC-1R Control X: (MC-1R [1]) | POMC Control X: (POMC [2]) | μ opioid R Control X: (μ opioid R [3]) | MC-1R Control X: (MC-1R [4]) | μ opioid R Control X: (μ opioid receptor) | MC-2R Control X: (MC-2R [5]) | μ opioid R Control X: (μ opioid R [6]) | MC-2R Control X: (MC-2R [7]) | POMC Control X: (POMC [8])
1 | Cc1nc(C(=O)O)cc2c1[nH]c1ccccc12 [1 methyl beta carbolin-3-carboxylic acid] | 1.0 Control X | 3.3 Control X | 1.0 Control X | – | – | – | – | – | –
2 | C/C=C(/C)C(=O)OC1CC2(C)CCC(C(C)C)C2(O)CCC1(C)O (stereo not drawn) [(Z)-decahydro-6,8a-dihydroxy-1-isopropyl-3a,6-dimethylazulen-5-yl 2-methylbut-2-enoate] | – | – | – | 1.0 Control X | 1.37 Control X | 1.99 Control X | 1.0 Control X | 18.5 Control X | 1 Control X
3 | CC1=CC(=O)C2=C(C)CC(OC(=O)Cc3ccccc3)C3C(C)C(=O)OC3C12 (stereo not drawn) [Phenyl-acetic acid 3,6,9-trimethyl-2,7-dioxo-2,3,3a,4,5,7,9a,9b-octahydro-azuleno[4,5-b]furan-4-yl] | – | – | – | 20.0 Control X | 1.66 Control X | 1.96 Control X | 1.0 Control X | 20.0 Control X | 1 Control X
